Measurements reported in patent US12076332B2, “Treatment of lysosomal storage disorders” (The Regents of the University of California, priority 2018, dated 2024).
Entries after “also recorded” stand apart in the source; their conditions may differ.

Assays:
[1] = systemic administration; cited from earlier work
WT mice [2] = assay: Lysosomal autophagic axis in WT mice; format: in vivo, mouse; conditions: WT mice upon treatment
Excerpt: Therefore, the present data support a model in which progressive amyloid build-up into lysosomes impairs autophagic flux. Mechanisms underlying such effect involve the negative impact of amyloids on autophagosome clearance through the prevention of lysosome encountering. […] This might be a consequence of the relief of the autophagy block and/or might be a result of a more specific effect of CLR01 on lysosomal-mediated signaling pathways inducing ALP, signaling that may be impaired by amyloid deposition in MPS-IIIA.

MPS-IIIA mice [3] = assay: IHC anti-LAMP1 on brain sections; format: in vivo, mouse; conditions: daily s.c. injection for 4.5 months
Method: (§1) FIG. 8. […] Images from cerebral cortex shown. […] Three mice for each experiment group.
(§2) For paraffin embedding, mice brain were fixed in 4% paraformaldehyde (PFA) overnight at 4° C., then mice brain were dehydrated in a graded series of ethanol, cleared with xylene, and infiltrated with paraffin. Paraffin-embedded blocks were cut on a microtome in 6-μm sagittal sections. Immunohistochemistry experiments were […] performed using the Universal Vectastain Elite ABC HRP Kit (PK6200, Vector Laboratories). For all immunostainings were used sagittal sections, rinsed in PBS1×-Triton 0.1% and treated with 1% H2O2 for 30 min to quench endogenous peroxidase activity. At this point the sections were exposed at PBS or at Proteinase K digestion (50 μg/ml) for 2 minutes at 37° C. to detect protease resistant structures. After this point the sections were blocked for 1 hour in PBS1×-TritonX-100 0.1%-2% Horse Serum and then incubated with specific antibodies overnight at […], followed by incubation in biotinylated universal antibody (Vector Laboratories) for 90 minutes at room temperature and in ABC reagent (Vector Laboratories) for 45 minutes at room temperature. Sections were dehydrated and then mounted with Leica CV ULTRA (Leica micro systems). Visualization was performed using 3,3-diaminobenzidine tetrahydrochloride (DAB Vector Laboratories). […]

MPS-IIIA mice [4] = assay: Anti-LC3 immunofluorescence on brain sections; format: in vivo, mouse
Excerpt: FIG. 9. Panels A and B, show anti-LC3 immunofluorescence on brain sagittal sections from the four experimental groups of mice. The number of LC3-positive dots (either total or large dots) were quantified in 15 different fields from the cortical regions for each group. Three mice for each experimental group. […] Panel C) Immunofluorescence analysis of colocalization in MPS-IIIA mice brain sagittal sections between LC3 (green) and Lamp1 (red), LC3 (green) and Neurofilament (red). […] Panel E) Immunohistochemistry analysis of anti-Ubiquitin K63 signal on brain sagittal sections derived from the four experimental groups of mice. Images from cerebral cortex shown. UbK63 immuno-reactivity quantified in 10 different fields from the cortical regions from each group.
(§3) Medial sagittal sections of frozen brain tissue were cut on a cryostat at either 12 or 40 μm of thickness, permeabilized (PBS, 0.2% Tween[…]20, and 10% fetal bovine serum), and stained with appropriate primary and secondary antibodies overnight at […] Sections were analyzed by Confocal microscope Zeiss LSM 710 using either 63× or 40× objectives. Stained sections were mounted with Vectashield (Vector Laboratories, CA, USA).
In healthy neurons autophagosomes are efficiently cleared upon axonal retrograde transport and lysosomal encountering and, therefore, are rarely found in neurites or cell bodies unless lysosomal-dependent autophagosome clearance is disrupted (Boland et al. (2008) J. Neurosci. 28: 6926-6937; Maday et al. (2012) J. Cell Biol. 196: 407-417; Lie & Nixon (2019) Neurobiol. Dis. 122: 94-105).

MPS-IIIA mice [5] = assay: Contextual fear conditioning test; format: in vivo, mouse; conditions: daily s.c. injection for 4.5 months, 9 months of age
Excerpt: FIG. 7. […] Panel B) TEM analysis of synaptic vesicles number. […] Panel C) Contextual fear condition task.

WT mice [6] = conditions: daily s.c. injection for 4.5 months
Excerpt: Panel C) IHC anti-Lamp-on brain sagittal sections derived from the four experimental groups of mice (WT saline-injected, WT CLR01-injected, MPS-IIIA-saline injected and MPS-IIIA CLR01-injected). Images from cerebral cortex shown. Lamp 1 immuno-reactivity quantified in 10 different fields from the cortical regions for each group. Three mice for each experimental group. ***p<0.001 vs WT; ###P<0.001 vs MPS-IIIA+saline, One-way ANOVA analysis with Bonferroni's multiple comparison test. Panels D and E) TEM analysis to quantify the number/size of lysosomes in the four experimental group of mice. Three mice for each experiment group. Representative TEM images were shown on the left panel. *, **, *** p<0.05, 0.01, 0.001 vs WT; ##, ###, P<0.01, 0.001 vs MPS-IIIA+saline, One-way ANOVA analysis with Bonferroni's multiple comparison test.

WT mice [7] = assay: IHC anti-LAMP1 on brain sections of WT mice; format: in vivo, mouse; conditions: daily s.c. injection for 4.5 months
Method: as §1, §2

MPS-IIIA mice [8] = assay: IHC anti-UbK63 on brain sections; format: in vivo, mouse; conditions: CLR01-treated MPS-IIIA brain vs control MPS-IIIA brain
Excerpt: (§4) FIG. 9. Panels A and B, show anti-LC3 immunofluorescence on brain sagittal sections from the four experimental groups of mice. The number of LC3-positive dots (either total or large dots) were quantified in 15 different fields from the cortical regions for each group. Three mice for each experimental group. […] Panel C) Immunofluorescence analysis of colocalization in MPS-IIIA mice brain sagittal sections between LC3 (green) and Lamp1 (red), LC3 (green) and Neurofilament (red). […] Images from cerebral cortex shown.
For paraffin embedding, mice brain were fixed in 4% paraformaldehyde (PFA) overnight at 4° C., then mice brain were dehydrated in a graded series of ethanol, cleared with xylene, and infiltrated with paraffin. Paraffin-embedded blocks were cut on a microtome in 6-μm sagittal sections. Immunohistochemistry experiments were […] performed using the Universal Vectastain Elite ABC HRP Kit (PK6200, Vector Laboratories). For all immunostainings were used sagittal sections, rinsed in PBS1×-Triton 0.1% and treated with 1% H2O2 for 30 min to quench endogenous peroxidase activity. […]
(§5) To evaluate whether the normalization of the lysosomal compartment mediated by amyloid deposition inhibition was also associated to a functional recovery of lysosomes, the ALP was analyzed in MPS-IIIA mouse brain upon CLR01 treatment. […]

[9] = test system: mouse models of synucleinopathies and Alzheimer's disease; conditions: cited from earlier work
[10] = systemic administration, mice; cited from earlier work
MPS-IIIA mice [11] = conditions: mouse, in vivo, sc, 1 mg/kg/day
MPS-IIIA mice [12] = assay: Western blot of LC3-II and p62 on brain lysates; format: in vivo, mouse
WT mice [13] = assay: Anti-LC3 immunofluorescence on brain sections of WT mice; format: in vivo, mouse; conditions: CLR01-treated WT mice
Excerpt: as §4, §3, §5

MPS-IIIA mice [14] = assay: Thioflavin S staining of amyloid deposits in brain sections; format: in vivo, mouse
Excerpt: CLR01 was produced in the facility of Professor Gal Bitan (Associate Professor of Neurology, Department of Neurology, University of California, UCLA). […] […] CLR01 dosage has been chosen on the basis of safety and pharmacological characterization of CLR01 in mice (Attar et al. (2014) BMC Parmacol. & Toxicol 15: 23).
After euthanization, mouse brain was collected from each experimental group and perfused with phosphate-buffered saline (PBS pH 7,4) to completely clear blood from tissue. The brains were divided in two equal parts: half of each was frozen in dry ice and used for biochemical analysis. The other halves were fixed in 4% (w/v) paraformaldehyde in PBS and embedded in Optimal cutting temperature compound (OCT compound) or paraffin.
For thioflavin S histochemistry were used cryosections (12 μm), then sections were incubated in 0.1% thioflavin S for 10 min. Slides were immersed to 80% ethanol solution for 5 min, and mounted using FLUORSAVE™ reagent. Positive staining was observed using a Leica DM5500 scan.
The inventors therefore tested whether CLR01 (FIG. 4, panel A), was effective in targeting and destroying amyloid aggregation in MPS IIIA mice. […] Both treatments ended at 7 months of age, when the neuropathological phenotype becomes evident in MPS-IIIA mice (Lau et al. (2008) Behav. Brain Res. 191: 130-136; Sambri et al. (2016) EMBO Mol. Med. e201606965; Sorrentino et al. (2013) EMBO Mol. Med. 5: 675-690; Wilkinson et al. (2012) PloS one, 7: e35787). The two different treatment regimens allowed evaluation of the potential therapeutic effect of CLR01 resulting from either prevention or disassembly of amyloid aggregation.
The potential therapeutic efficacy of CLR01 in MPS-IIIA was further tested by treating MPS-IIIA mice at 4.5 months of age (before massive amyloid aggregation takes place) with daily sub-cutaneous injection of CLR01 over a period of 4.5 months.

MPS-IIIA mice [15] = assay: TEM analysis of number/size of lysosomes; format: in vivo, mouse
Excerpt: as §1

MPS-IIIA mice [16] = assay: GFAP and IBA1 staining of neuro-inflammation in brain; format: in vivo, mouse
MPS-IIIA mice [17] = conditions: MPS-IIIA mouse brain, daily s.c. injection for 4.5 months, 9 months of age
Excerpt: Panel B) TEM analysis of synaptic vesicles number. […] The arrows indicate the synaptic cleft. ***p<0.0001 vs WT+Saline; ###p<0.0001 vs MPS-IIIA+saline, One-way ANOVA analysis with Bonferroni's multiple comparison test.

WT mice [18] = conditions: daily s.c. injection for 4.5 months; remark: listed apart in the source
[19] = CLR01-treated MPS-IIIA brain vs WT
[20] = MPS-IIIA brain lysates, CLR01 vs saline
[21] = MPS-IIIA brain, daily s.c. injection for 4.5 months

O=P(O)(O)Oc1c2c(c(OP(=O)(O)O)c3c1C1CC3c3cc4c(cc31)C1CC4c3ccccc31)C1CC2c2cc3c(cc21)C1CC3c2ccccc21 [CLR01]
brain targeting / blood-brain barrier crossing [1]: cross the blood-brain barrier | lysosomal autophagic axis (WT mice [2]): no significant change in lysosomal autophagic axis | LAMP1-positive immunostaining, cerebral cortex (MPS-IIIA mice [3]): markedly reduced LAMP1-positive immunostaining | number of LC3 dots (both large and normal sized) compared to WT brain (MPS-IIIA mice [4]; [19]): remained significantly higher compared to WT brain | autophagic flux / autophagy block (MPS-IIIA mice [4]; MPS-IIIA brain, conclusion from LC3 dots): autophagic flux was re-activated; also recorded: able to relief autophagy block | large LC3 dots (>0.8 μm^2) (MPS-IIIA mice [4]; MPS-IIIA brain, cortical regions, daily s.c. injection for 4.5 months): significantly reduced large LC3 dots | memory deficit (freezing time, contextual fear conditioning) (MPS-IIIA mice [5]): rescue of memory deficits; also recorded: fully rescued | lysosome size/number (WT mice [6]): did not affect lysosome size/number | LAMP1 compartment volume (WT mice [7]): did not modify LAMP1 compartment volume | UbK63 IHC signal, cerebral cortex (MPS-IIIA mice [8]): significant signal reduction | protection against protein aggregation and neurodegeneration [9]: very effective in protecting against protein aggregation and neurodegeneration | safety margin [10]: high safety margin | build-up of amyloid components (α-Synuclein, PrP, Aβ1-42, Tau), proteinase K-resistant (MPS-IIIA mice [11]): efficient inhibition of the build-up of several amyloid components | LC3-II levels compared to WT (MPS-IIIA mice [12]; [19]): remained significantly higher than WT | LC3-II protein level (Western blot, normalized to β-actin) (MPS-IIIA mice [12]; [20]): reduction; also recorded: damped down | p62 protein level (Western blot, normalized to β-actin) (MPS-IIIA mice [12]; [20]): reduction; also recorded: damped down | LC3 staining (WT mice [13]): a significant change in LC3 staining was observed | thioflavin-positive inclusions / amyloid deposition in brain (MPS-IIIA mice [14]; MPS-IIIA mice, daily s.c. injection for 4.5 months from 4.5 months of age, analysed at 9 months): reduction of amyloid deposition; also recorded: almost complete absence of thioflavin-positive inclusions | amyloid proteins by Thioflavin S staining (MPS-IIIA mice [14]; asymptomatic MPS-IIIA mice, 1 mg/kg/day s.c. osmotic pump, 2 months from 5 months of age, analysed at 7 months): complete disappearance of amyloid proteins | amyloid deposits by Thioflavin S staining in different brain regions (MPS-IIIA mice [14]; symptomatic MPS-IIIA mice, 1 mg/kg/day s.c. osmotic pump, 1 month from 6 months of age, analysed at 7 months): partial removal of amyloid deposits | total number of lysosomes (MPS-IIIA mice [15]; CLR01-treated MPS-IIIA brain vs control MPS-IIIA mice): remained significantly higher than control MPS-IIIA mice | average lysosomal size (EM) (MPS-IIIA mice [15]; [21]): significant reduction in the average lysosomal size | number of abnormal-sized lysosomes (>800 nm) (MPS-IIIA mice [15]; [21]): decreased number of abnormal-sized lysosomes | neuroinflammatory markers GFAP and IBA1, immunofluorescence (MPS-IIIA mice [16]; 2 months of treatment, at 7 months of age): strong reduction of inflammation | neuro-inflammation by GFAP and Iba1 IHC, cortex and striatum (MPS-IIIA mice [16]; daily s.c. injection for 4.5 months, 9 months of age): reduction in both inflammatory markers; also recorded: strongly reduced neuro-inflammation | synaptic abnormalities (synaptic vesicles/synaptic cleft length ratio, TEM) (MPS-IIIA mice [17]): able to rescue synaptic abnormalities | inflammatory response by GFAP and Iba1 IHC (WT mice [18]): did not elicit inflammatory response
